From patent US20150344540A1, “NOVEL GLP-1 RECEPTOR AGONISTS WITH CHOLESTEROL EFFLUX ACTIVITY” (NOVO NORDISK A/S, priority 2012, published 2015)
Where two headings read alike, the source gives them in different places. Where a SMILES comes first, the peptide text is derived from it. Where no end group is shown, it is not given here. [ ]: non-standard residue; d: D form. Aib = CC(C)(N)C(=O)O

Legend:
human GLP-1 receptor = human GLP-1 receptor (Homo sapiens, UniProt P43220); test: Functional GLP-1 receptor assay, in vitro potency (CRE luciferase; whole cells); format: cell-based; conditions: BHK cells expressing human GLP-1 receptor
[1] = tested on: Mouse monocyte/macrophage cell line, RAW 264.7; test: Cholesterol efflux assay (3H-cholesterol, macrophage cell line); format: cell-based; conditions: RAW 264.7, 4 hrs incubation, 0.1% human serum albumin; for 4 h Cholesterol Efflux Emax: ABCA1-mediated efflux
[2] = 0% HSA, read-out: GLP1R CRE luc 0% HSA EC50 Mean Value
[3] = GLP1R CRE luc 1% HSA EC50 Mean Value, 1% HSA

Chain of human GLP-1 receptor (P43220 24-463): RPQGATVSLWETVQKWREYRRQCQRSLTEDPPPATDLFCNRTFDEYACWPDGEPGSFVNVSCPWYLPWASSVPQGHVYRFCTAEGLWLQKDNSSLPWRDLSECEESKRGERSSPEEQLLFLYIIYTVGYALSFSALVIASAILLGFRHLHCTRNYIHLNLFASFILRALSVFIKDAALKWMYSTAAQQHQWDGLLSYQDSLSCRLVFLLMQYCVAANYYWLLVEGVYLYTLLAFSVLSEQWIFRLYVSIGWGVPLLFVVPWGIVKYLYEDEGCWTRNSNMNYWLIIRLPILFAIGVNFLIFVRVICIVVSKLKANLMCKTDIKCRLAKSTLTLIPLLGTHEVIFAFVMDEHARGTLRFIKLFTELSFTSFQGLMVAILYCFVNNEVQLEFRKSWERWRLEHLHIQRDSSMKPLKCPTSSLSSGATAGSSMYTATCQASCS

Compound | EC50 (human GLP-1 receptor; [2]) [nM] | EC50 (human GLP-1 receptor; [3]) [nM] | 4 h Cholesterol Efflux Emax [1] [%] | EC50 ([1]; read-out: 4 h Cholesterol Efflux EC50, ABCA1-mediated efflux (CPT-cAMP induced minus non-induced)) [nM]
CC[C@H](C)[C@H](NC(=O)[C@H](Cc1ccccc1)NC(=O)[C@H](CCC(=O)O)NC(=O)[C@H](CCCCN)NC(=O)[C@@H](NC(=O)[C@H](C)NC(=O)[C@H](CCC(=O)O)NC(=O)[C@H](CCC(=O)O)NC(=O)[C@H](CCC(=O)O)NC(=O)[C@H](CC(C)C)NC(=O)[C@H](Cc1ccc(O)cc1)NC(=O)[C@H](CO)NC(=O)[C@H](CO)NC(=O)[C@@H](NC(=O)[C@H](CC(=O)O)NC(=O)[C@H](CO)NC(=O)[C@@H](NC(=O)[C@H](Cc1ccccc1)NC(=O)[C@@H](NC(=O)CNC(=O)[C@H](CCC(=O)O)NC(=O)C(C)(C)NC(=O)[C@@H](N)Cc1c[nH]cn1)[C@@H](C)O)[C@@H](C)O)C(C)C)C(C)C)C(=O)N[C@@H](C)C(=O)N[C@@H](Cc1c[nH]c2ccccc12)C(=O)N[C@@H](CC(C)C)C(=O)N[C@H](C(=O)N[C@@H](CCC(=O)O)C(=O)N[C@@H](CCCCN)C(=O)N[C@H](C(=O)N[C@@H](CCCCN)C(=O)N[C@@H](CCC(=O)O)C(=O)N[C@@H](Cc1ccccc1)C(=O)N[C@@H](CC(C)C)C(N)=O)C(C)C)C(C)C [Compound 137, [Aib8,Glu22,Glu23,Val25,Glu34,Lys35,Val36,Lys37]-GLP-1-(7-37)-peptidyl-Glu-Phe-Leu amide] (H-H[Aib]EGTFTSDVSSYLEEEAVKEFIAWLVEKVKEFL-NH2) | 0.116 | 0.034 | 108 | –
CC[C@H](C)[C@H](NC(=O)[C@H](Cc1ccccc1)NC(=O)[C@H](CCC(=O)O)NC(=O)[C@H](CCCCN)NC(=O)[C@@H](NC(=O)[C@H](C)NC(=O)[C@H](CCC(=O)O)NC(=O)CNC(=O)[C@H](CCC(=O)O)NC(=O)[C@H](CC(C)C)NC(=O)[C@H](Cc1ccc(O)cc1)NC(=O)[C@H](CO)NC(=O)[C@H](CO)NC(=O)[C@@H](NC(=O)[C@H](CC(=O)O)NC(=O)[C@H](CO)NC(=O)[C@@H](NC(=O)[C@H](Cc1ccccc1)NC(=O)[C@@H](NC(=O)CNC(=O)[C@H](CCC(=O)O)NC(=O)C(C)(C)NC(=O)[C@@H](N)Cc1c[nH]cn1)[C@@H](C)O)[C@@H](C)O)C(C)C)C(C)C)C(=O)N[C@@H](C)C(=O)N[C@@H](Cc1c[nH]c2ccccc12)C(=O)N[C@@H](CC(C)C)C(=O)N[C@H](C(=O)N[C@@H](CCC(=O)O)C(=O)N[C@@H](CCCCN)C(=O)N[C@H](C(=O)N[C@@H](CCCCN)C(=O)N[C@@H](CCC(=O)O)C(=O)N[C@@H](CCCCN)C(N)=O)C(C)C)C(C)C [Compound 110, [Aib8,Glu23,Val25,Glu34,Lys35,Val36,Lys37]-GLP-1-(7-37)-peptidyl-Glu-Lvs amide] (H-H[Aib]EGTFTSDVSSYLEGEAVKEFIAWLVEKVKEK-NH2) | 0.043 | 0.014 | 106 | –
CC[C@H](C)[C@H](NC(=O)[C@H](Cc1ccccc1)NC(=O)[C@H](CCC(=O)O)NC(=O)[C@H](CCCNC(=N)N)NC(=O)[C@@H](NC(=O)[C@H](C)NC(=O)[C@H](CCC(=O)O)NC(=O)[C@H](CCC(=O)O)NC(=O)[C@H](CCC(=O)O)NC(=O)[C@H](CCSC)NC(=O)[C@H](CCC(N)=O)NC(=O)[C@H](CCCCN)NC(=O)[C@H](CO)NC(=O)[C@H](CC(C)C)NC(=O)[C@H](CC(=O)O)NC(=O)[C@H](CO)NC(=O)[C@@H](NC(=O)[C@H](Cc1ccccc1)NC(=O)[C@@H](NC(=O)CNC(=O)[C@H](CCC(=O)O)NC(=O)C(C)(C)NC(=O)[C@@H](N)Cc1c[nH]cn1)[C@@H](C)O)[C@@H](C)O)C(C)C)C(=O)N[C@@H](CCC(=O)O)C(=O)N[C@@H](Cc1c[nH]c2ccccc12)C(=O)N[C@@H](CC(C)C)C(=O)N[C@@H](CCCCN)C(=O)N[C@@H](CC(N)=O)C(=O)N[C@@H](CCCCN)C(=O)NC(C)(C)C(=O)N[C@@H](CC(C)C)C(=O)N[C@@H](CCC(=O)O)C(=O)N[C@@H](CO)C(=O)N[C@@H](CC(C)C)C(=O)N[C@@H](CCC(=O)O)C(=O)N[C@@H](CC(C)C)C(=O)N[C@@H](CC(C)C)C(N)=O [Compound 37, [Aib2,Glu21,Lys29,Aib30,Leu31,Glu32,Leu34,Glu35,Leu36,Leu371-Exendin-4-(1-37)-peptide amide] (H-H[Aib]EGTFTSDLSKQMEEEAVREFIEWLKNK[Aib]LESLELL-NH2; N-terminus assumed) | 0.023 | 0.011 | 102 | –
HAEGTFTSDLSKQMEEEAVREFIEWLKNKVLEFL-NH2 [Compound 69, [Ala2,Glu21,Lys29,Val30,Leu31,Glu32,Phe33,Leu34]-Exendin-4-(1-34)-peptide amide] | 0.031 | 0.02 | – | 410
CC(C)C[C@H](NC(=O)[C@H](Cc1ccccc1)NC(=O)[C@H](CCC(=O)O)NC(=O)[C@H](CCCCN)NC(=O)C(C)(C)NC(=O)[C@H](CCCCN)NC(=O)[C@H](CCC(=O)O)NC(=O)[C@H](CC(C)C)NC(=O)[C@H](CC(C)C)NC(=O)[C@H](Cc1c[nH]c2ccccc12)NC(=O)[C@H](CCC(N)=O)NC(=O)[C@@H](NC(=O)[C@H](Cc1ccccc1)NC(=O)[C@H](CCC(=O)O)NC(=O)[C@H](CCCNC(=N)N)NC(=O)[C@H](C)NC(=O)[C@H](C)NC(=O)[C@H](CCCCN)NC(=O)CNC(=O)[C@H](CC(=O)O)NC(=O)[C@H](CC(C)C)NC(=O)[C@H](Cc1ccc(O)cc1)NC(=O)[C@H](CCCCN)NC(=O)[C@H](CO)NC(=O)[C@H](Cc1ccc(O)cc1)NC(=O)[C@H](CC(=O)O)NC(=O)[C@H](CO)NC(=O)[C@@H](NC(=O)[C@H](Cc1ccccc1)NC(=O)[C@@H](NC(=O)CNC(=O)[C@H](CCC(N)=O)NC(=O)C(C)(C)NC(=O)[C@@H](N)Cc1c[nH]cn1)[C@@H](C)O)[C@@H](C)O)C(C)C)C(N)=O [Compound 24] (H-H[Aib]QGTFTSDYSKYLDGKAAREFVQWLLEK[Aib]KEFL-NH2) | 1.63 | 0.908 | 82 | –
CC[C@H](C)[C@H](NC(=O)[C@H](Cc1ccccc1)NC(=O)[C@H](CCC(=O)O)NC(=O)[C@H](CCCCN)NC(=O)[C@@H](NC(=O)[C@H](C)NC(=O)[C@H](CCC(=O)O)NC(=O)CNC(=O)[C@H](CCC(=O)O)NC(=O)[C@H](CC(C)C)NC(=O)[C@H](Cc1ccc(O)cc1)NC(=O)[C@H](CO)NC(=O)[C@H](CO)NC(=O)[C@@H](NC(=O)[C@H](CC(=O)O)NC(=O)[C@H](CO)NC(=O)[C@@H](NC(=O)[C@H](Cc1ccccc1)NC(=O)[C@@H](NC(=O)CNC(=O)[C@H](CCC(=O)O)NC(=O)C(C)(C)NC(=O)[C@@H](N)Cc1c[nH]cn1)[C@@H](C)O)[C@@H](C)O)C(C)C)C(C)C)C(=O)N[C@@H](C)C(=O)N[C@@H](Cc1c[nH]cn1)C(=O)N[C@@H](CC(C)C)C(=O)N[C@H](C(=O)N[C@@H](CCC(=O)O)C(=O)N[C@@H](CCCCN)C(=O)NC(C)(C)C(=O)N[C@@H](CCCCN)C(=O)N[C@@H](CCC(=O)O)C(=O)N[C@@H](Cc1ccccc1)C(=O)N[C@@H](CC(C)C)C(N)=O)C(C)C [Compound 17, [Aib8,Glu23,Val25,His31,Glu34,Lys35,Aib36,Lys37]-GLP-1-(7-37)-peptidyl-Glu-Phe-Leu amide] (H-H[Aib]EGTFTSDVSSYLEGEAVKEFIAHLVEK[Aib]KEFL-NH2) | – | 0.02 | 102 | –
CC[C@H](C)[C@H](NC(=O)[C@H](Cc1ccccc1)NC(=O)[C@H](CCC(=O)O)NC(=O)[C@H](CCCCN)NC(=O)[C@@H](NC(=O)[C@H](C)NC(=O)[C@H](CCC(N)=O)NC(=O)CNC(=O)[C@H](CCC(=O)O)NC(=O)[C@H](CC(C)C)NC(=O)[C@H](Cc1ccc(O)cc1)NC(=O)[C@H](CO)NC(=O)[C@H](CO)NC(=O)[C@@H](NC(=O)[C@H](CC(=O)O)NC(=O)[C@H](CO)NC(=O)[C@@H](NC(=O)[C@H](Cc1ccccc1)NC(=O)[C@@H](NC(=O)CNC(=O)[C@H](CCC(=O)O)NC(=O)C(C)(C)NC(=O)[C@@H](N)Cc1c[nH]cn1)[C@@H](C)O)[C@@H](C)O)C(C)C)C(C)C)C(=O)N[C@@H](C)C(=O)N[C@@H](Cc1c[nH]c2ccccc12)C(=O)N[C@@H](CC(C)C)C(=O)N[C@H](C(=O)N[C@@H](CC(N)=O)C(=O)N[C@@H](CCCCN)C(=O)NC(C)(C)C(=O)N[C@@H](C)C(=O)N[C@@H](CCC(=O)O)C(=O)N[C@@H](Cc1ccccc1)C(=O)N[C@@H](CC(C)C)C(N)=O)C(C)C [Compound 73] (H-H[Aib]EGTFTSDVSSYLEGQAVKEFIAWLVNK[Aib]AEFL-NH2) | 0.108 | 0.062 | 86 | –
CC[C@H](C)[C@H](NC(=O)[C@H](Cc1ccccc1)NC(=O)[C@H](CCC(=O)O)NC(=O)[C@H](CCCNC(=N)N)NC(=O)[C@@H](NC(=O)[C@H](C)NC(=O)[C@H](CCC(=O)O)NC(=O)CNC(=O)[C@H](CCC(=O)O)NC(=O)[C@H](CC(C)C)NC(=O)[C@H](Cc1ccc(O)cc1)NC(=O)[C@H](CO)NC(=O)[C@H](CO)NC(=O)[C@@H](NC(=O)[C@H](CC(=O)O)NC(=O)[C@H](CO)NC(=O)[C@@H](NC(=O)[C@H](Cc1ccccc1)NC(=O)[C@@H](NC(=O)CNC(=O)[C@H](CCC(=O)O)NC(=O)C(C)(C)NC(=O)[C@@H](N)Cc1c[nH]cn1)[C@@H](C)O)[C@@H](C)O)C(C)C)C(C)C)C(=O)N[C@@H](C)C(=O)N[C@@H](Cc1c[nH]c2ccccc12)C(=O)N[C@@H](CC(C)C)C(=O)N[C@H](C(=O)N[C@@H](CCC(=O)O)C(=O)N[C@@H](CCCNC(=N)N)C(=O)N[C@H](C(=O)N[C@@H](CCCNC(=N)N)C(=O)N[C@@H](CCC(=O)O)C(=O)N[C@@H](Cc1ccccc1)C(=O)N[C@@H](CC(C)C)C(=O)N[C@@H](CCCCN)C(N)=O)C(C)C)C(C)C [Compound 91] (H-H[Aib]EGTFTSDVSSYLEGEAVREFIAWLVERVREFLK-NH2) | – | 0.118 | 103 | –
